The text below walks through data of patent publication US5422341A, “Motilin-like polypeptides with gastrointestinal motor stimulating activity” (Ohmeda Pharmaceutical Products Division Inc., priority 1993, dated 1995).

Square brackets hold non-standard residues; d marks the D form. Ends that are not written are not given here. Peptide text beside a SMILES is read from it. * marks the point of attachment. X1 = C[N+](C)(C)[C@@H](Cc1ccccc1)C(=O)*; NMeF = CN[C@@H](Cc1ccccc1)C(=O)O

The target in data set [1] is segments of rabbit duodenum (Oryctolagus cuniculus, UniProt G1T803). Description: Rabbit duodenal smooth muscle strip tissue bath assay. In kind it is cell-based. As to conditions: negative logarithm of the dose giving 50% of the maximal response to motilin; isotonic contraction of rabbit duodenum segments. Put shortly:
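Isotonic contraction of rabbit duodenal segments after 1 h equilibration and 10^-4 M acetylcholine challenge; cumulative compound curve over 10^-11 to 10^-4 M, then 10^-7 M motilin. Runs discarded if final acetylcholine response differed >5%. EC50 at 50% of maximal motilin response, reported as pEC50.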

A further data set addresses T1, motilin receptor (Oryctolagus cuniculus, UniProt G1T803).
T1 construct: from tissue; host or cells: rabbit antral smooth muscle membranes
The data set can be described thus: Determination of motilin receptor binding affinity (displacement of [125I-Tyr7, Nle13]motilin(porcine)). As to conditions: for IC50: negative logarithm of the concentration displacing 50% of [125I-Tyr7, Nle13]motilin(porcine) from rabbit antral smooth muscle membranes, read-out: pIC50 (converted). On the set-up: species or system rabbit. Here is the method:
The motilin receptor binding affinity of the peptides of this invention was determined by using the general procedure of Bormans, Peelers and Vantrappen, Regul. […] Fitting was performed using the iterative least-squares procedure of the SAS-software package (SAS Institute, Inc., Cary, N.C., USA).

In data set [2] the test system is canine gastrointestinal tract. The data set can be described thus: Contractile activity in the canine gastrointestinal tract. As to conditions: anesthetized dogs, intra-arterial injection to a duodenal segment; amount giving 50% of the calibration response to field stimulation. It is filed as in vivo, dog. Here is the method: Mongrel dogs of either sex were anesthetized with sodium pentobarbital 65 mg/kg intravenously. A mid-line incision was made in the abdomen. A duodenal segment was located, the terminal arteries to that segment were identified, and the closest possible artery of the appropriate size was rubbed clean of fat and fascia. A needle of suitable diameter was bent at an angle and the tip inserted in the cleaned artery. The needle was held in position in the artery for approximately 30 seconds until vascular spasm has relaxed and then a catheter assembly was inserted into the artery and tied into position with 000 silk sutures. The fine polyethylene catheter (10-15 cm) was cut to a point at one end with a needle inserted at the other end. The hub of the needle was fitted with a 3-way stopcock and the catheter assembly was filled with heparinized Krebs Ringer bicarbonate containing 10 mM glucose. A bolus of Krebs (free of air) was injected into the arterial catheter and the distribution of blanching in the segment noted. If the area was too large, collateral arteries may be tied off as long as circulation to the area was maintained. A Bass type strain gauge was then sutured to the serosa, and oriented so that circular muscle contractions can be recorded on a Beckman R611 dynograph. Silver wire electrodes were inserted subserosally on either side of the strain gauge and were connected through stimulus isolation units to a Grass S88 electrical stimulator. Electrical field stimulation was applied at 40 V 0.5 ms and 5 pps and the amplitude of the pen recorder was set to contain the contractile response.
All peptides to be injected were dissolved in Krebs and serial dilutions were prepared so that for any concentration the maximum volume to be injected was 1 ml. All solutions except stock Krebs were held on ice for the day of the experiment and discarded at the end of the day. For determination of a dose-response curve, the site was first injected with a bolus of approximately 1 ml of heparinized Krebs to provide a flush control. Peptide agonists (in volumes of 1 ml flushed with 1 ml of Krebs) were injected in logarithmic increments until a response which was maximal in amplitude was obtained. The injection site was then flushed with Krebs containing 0.1% BSA to displace any peptide remaining in the arterial line. For peptides acting at the motilin receptor, care was taken not to inject supramaximal doses as these will induce tachyphylaxis. Therefore, as responses become apparent, 0.3 or 0.5 log unit increments were used. A site was used for a dose-response determination only every 1/2 to 1 hour.
The amplitude of the calibration response to field stimulation in each site was measured and used as 100% for that site. The amplitude of the response to the agonist at each dose was determined, calculated as a % of the calibration response and plotted against the concentration. The ED50 of the response represents the amount of agonist required to produce a response which was 50% of the calibration response.

Data set [3] is classed as in vitro ADME, hog. As to conditions: pH 7. As for the experimental part:
Like most small linear polypeptides, motilin is believed to be metabolized lo by the brush border cells of the kidney. Therefore, kidney homogenate was chosen as the model system for assessing the relative in vivo biostability of the peptides of this invention. All peptides to be studied were incubated in hog kidney (Pel Freeze, Inc., Rogers, Ark.) (2% w/v; final volume=4 ml; buffer=HEPES pH 7.0) at 25° C. Both initial substrate concentration and internal standard (Fmoc-Gly) concentration were 0.5 mg/ml. In order to determine suitable incubation times and sampling intervals, two experiments were conducted with each polypeptide. The first run served as a rough estimate of peptide stability. All sampling was performed in duplicate. Sample volume was 180 μl.
Sample clean-up was performed by addition of 20 μl of 100% TCA (final volume=200 μl; final TCA concentration=10%). The sample was vortexed for from 5 to 10 seconds to ensure equilibration, then centrifuged to spin out the precipitated proteins. Analysis was carried out on a Waters HPLC system with a WISP autoinjector, a 5μ Vydac C-18 analytical column, and a Waters 481 UV detector set at 214 nm. Injection volume was 80 μl. Initial solvent conditions were […] in Milli-Q water with a 35 minute gradient running to 63% acetonitrile/37% (0.1%) TFA at 1 ml/min.
Polypeptide substrate and metabolite peaks were ratioed to the internal standard and the duplicate sample ratios were averaged. The avenge ratio for the peptide substrate was expressed as a percentage and plotted versus time. First-order kinetics was assumed for data treatment. The rate of disappearance of the substrate was calculated using the Enzfitter program (Biosoft). Relative half-lives were determined from the relationship: […]

The conditions of data set [4]: in vivo; cited from earlier work.

T1 sequence (G1T803 1-400): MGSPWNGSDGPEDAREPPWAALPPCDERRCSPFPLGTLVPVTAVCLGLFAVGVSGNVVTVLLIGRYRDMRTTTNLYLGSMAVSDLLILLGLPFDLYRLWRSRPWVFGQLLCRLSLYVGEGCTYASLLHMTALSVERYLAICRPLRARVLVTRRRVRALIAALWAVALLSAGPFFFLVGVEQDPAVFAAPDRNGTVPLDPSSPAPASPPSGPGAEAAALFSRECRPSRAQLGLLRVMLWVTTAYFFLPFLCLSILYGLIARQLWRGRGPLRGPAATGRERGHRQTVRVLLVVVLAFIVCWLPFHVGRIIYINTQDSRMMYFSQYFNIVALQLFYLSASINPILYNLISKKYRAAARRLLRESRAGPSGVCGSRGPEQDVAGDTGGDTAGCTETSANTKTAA
Chain of segments of rabbit duodenum (G1T803 1-400): as above

`CC[C@H](C)[C@H](NC(=O)[C@@H]1CCCN1C(=O)[C@@H](NC(=O)[C@H](Cc1ccccc1)NC)C(C)C)C(=O)N[C@@H](Cc1ccccc1)C(=O)N[C@H](C(=O)N[C@@H](Cc1ccc(O)cc1)C(=O)NCC(=O)N[C@@H](CCC(=O)O)C(=O)N[C@@H](CC(C)C)C(=O)N[C@@H](C)C(=O)N[C@H](CCCNC(=N)N)C(=O)N[C@@H](CC(C)C)C(=O)N[C@H](CCC(N)=O)C(N)=O)[C@@H](C)O` (H-[NMeF]VPIFTYGELA[dR]L[dQ]-NH2): the negative-log EC50 (pEC50) in data set [1] is recorded as 7.97. For the same molecule, the IC50 on motilin receptor was 0.851 nM. In data set [2], the ED50 was found to be 0.40 nmol. The T1/2 in data set [3] turned out to be 32.6.
Consider `CC[C@H](C)[C@H](NC(=O)[C@@H]1CCCN1C(=O)[C@@H](NC(=O)[C@H](Cc1ccccc1)NC)C(C)C)C(=O)N[C@@H](Cc1ccccc1)C(=O)N[C@H](C(=O)N[C@@H](Cc1ccc(O)cc1)C(=O)NCC(=O)N[C@@H](CCC(=O)O)C(=O)N[C@@H](CC(C)C)C(=O)N[C@@H](C)C(=O)N[C@H](CCCNC(=N)N)C(=O)N[C@@H](CC(C)C)C(=O)N[C@@H](CCCCN)C(N)=O)[C@@H](C)O` (H-[NMeF]VPIFTYGELA[dR]LK-NH2), for which the negative logarithm of the EC50 (pEC50) in data set [1] was 8.01. The IC50 on motilin receptor was 0.468 nM. Besides, in data set [2], the ED50 was determined as 0.30 nmol. The T1/2 in data set [3] was determined as 34.3.
In turn, “FVPIFTYGELQRLQ [[Leu^13]pMOT(1-14), reference compound]” returned a pEC50 in data set [1] of 7.55. Also, at motilin receptor, the IC50 was 4.37 nM. Besides, in data set [2], the ED50 came to 20.4 nmol. Further, the T1/2 in data set [3] came out at 7.5.
The corresponding values for `CC[C@H](C)[C@H](NC(=O)[C@@H]1CCCN1C(=O)[C@@H](NC(=O)[C@H](Cc1ccccc1)NC)C(C)C)C(=O)N[C@@H](Cc1ccccc1)C(=O)N[C@H](C(=O)N[C@@H](Cc1ccc(O)cc1)C(=O)NCC(=O)N[C@@H](CCC(=O)O)C(=O)N[C@@H](CC(C)C)C(=O)N[C@@H](CCC(N)=O)C(=O)N[C@@H](CCCNC(=N)N)C(=O)N[C@@H](CC(C)C)C(=O)N[C@@H](CCCCN)C(N)=O)[C@@H](C)O` (H-[NMeF]VPIFTYGELQRLK-NH2) are 7.74, 0.479 nM, 0.025 nmol and 20.
The corresponding values for `CC[C@H](C)[C@H](NC(=O)[C@@H]1CCCN1C(=O)[C@@H](NC(=O)[C@H](Cc1ccccc1)[N+](C)(C)C)C(C)C)C(=O)N[C@@H](Cc1ccccc1)C(=O)N[C@H](C(=O)N[C@@H](Cc1ccc(O)cc1)C(=O)NCC(=O)N[C@@H](CCC(=O)O)C(=O)N[C@@H](CC(C)C)C(=O)N[C@@H](CCC(N)=O)C(=O)N[C@H](CCCNC(=N)N)C(=O)N[C@@H](CC(C)C)C(=O)N[C@@H](CCCCN)C(N)=O)[C@@H](C)O` (X1-VPIFTYGELQ[dR]LK-NH2) are 7.60, 1.17 nM, 0.15 nmol and 162.
Take `CC[C@H](C)[C@H](NC(=O)[C@@H]1CCCN1C(=O)[C@@H](NC(=O)[C@@H](N)Cc1ccccc1)C(C)C)C(=O)N[C@@H](Cc1ccccc1)C(=O)N[C@H](C(=O)N[C@@H](Cc1ccc(O)cc1)C(=O)NCC(=O)N[C@@H](CCC(=O)O)C(=O)N[C@@H](CC(C)C)C(=O)N[C@@H](CCC(N)=O)C(=O)N[C@@H](CCCNC(=N)N)C(=O)N[C@@H](CCSC)C(=O)N[C@@H](CCC(N)=O)C(=O)N[C@@H](CCC(=O)O)C(=O)N[C@@H](CCCCN)C(=O)N[C@@H](CCC(=O)O)C(=O)N[C@@H](CCCNC(=N)N)C(=O)N[C@@H](CC(N)=O)C(=O)N[C@@H](CCCCN)C(=O)NCC(=O)N[C@@H](CCC(N)=O)C(=O)O)[C@@H](C)O` [motilin]: the Kd at motilin receptor was 0.759 nM. Moreover, the “half-life (t1/2)” value in data set [4] is 4.5 min.

One may read the pEC50 as the negative decadic logarithm of the EC50, by convention in mol/L. A lower pEC50 goes with a high EC50. The term Kd denotes the concentration at which binding is half-saturated.
